Results: patent publication US8835392B2, “Mimetic peptides and the use thereof in the form of 20S, 26S and immunoproteasome inhibitors” (Technische Universität, priority 2005, dated 2014)
Entries after “also recorded” stand apart in the source; their conditions may differ. Where a SMILES comes first, the peptide text is derived from it. The star is where a group is joined. Cbz = O=C(OCc1ccccc1)*; OtBu = CC(C)(C)O*

Assays:
[1] = molecular target: T1, 20S proteasome β5 chymotrypsin-like activity (Suc-LLVY-AMC) (Homo sapiens, UniProt P20618+P28074); assay: Protease assay, chymotrypsin-like activity of isolated 20S proteasomes (LLVY substrate); format: biochemical; details: isolated 20S proteasome; LLVY-MCA 50 μM; 15 min pre-incubation; read-out: IC50 β5 Chymotrypsin-like (Y)
T1 construct: Proteasomes were isolated from red blood cells; from tissue; host or cells: red blood cells
Experimental: (§1) Proteasomes were isolated from red blood cells. Cells were lysed with DTT (1 mM), and the stroma-free supernatant was loaded on DEAE-sepharose (Toyopearls). Proteasome was eluted with an NaCl-gradient in TEAD (20 mM TrisCl pH 7.4, 1 mM EDTA, 1 mM azide, 1 mM DTT) of 100 to 300 mM NaCl. Proteasome was concentrated using ammonium sulfate-precipitation (between 40 and 70% saturation) and was separated in a 10-40% sucrose-gradient through centrifugation at 40.000 rpm for 16 hours (SW40; L7, Beckman & Coulter). Finally, the proteasomes were purified on a MonoQ-column and eluted with an NaCl-gradient at about 280 mM NaCl. The fractions containing purified proteasome were dialysed against 50 mM NaCl in TEAD and stored on ice. The purity was determined using SDS-PAGE.
(§2) Suc-LLVY-AMC, Z-VGR-AMC and LLE-AMC (BACHEM, Calbiochem) was used, in order to determine the chymotrypsin-like, trypsin-like or caspase-like (post-acidic)-activities of the proteasome. Substrate was incubated with proteasome at 37° C. in assay-buffer (20 mM Tris/Cl, pH 7.2, 1 mM EDTA, 1 mM DTT) for one hour. 100 ng proteasome was pre-incubated with 0.01-10 μM of the inhibitor for […]. The reaction was started by the addition of substrate (50 μM). The AMC as released was detected using fluorescence emission at 460 nm (excitation at 390 nm) using a TECAN-fluorimeter. The activity was calculated in fluorescence-units. The inhibition is depicted by IC50-values.
The chymotrypsin-like (Suc-LLVY-AMC), the trypsin-like (Bz-VGR-AMC), and the caspase-like (Z-LLE-AMC)-activities of 20S proteasomes were determined following incubation for one hour at 37° C.
(§3) The IC50-values form the inhibition of the proteasome were calculated at increasing concentrations of the inhibitor. The samples were pre-incubated for 15 min in ice. The assay was started through the addition of 50 μM of one of the following fluorogenic peptide substrates:
(§4) The release of MCA was determined at 460 nm emission (excitation 390 nm). The IC50-values as calculated for MG132 served as controls.

[2] = molecular target: T2, proteasomal activity in HeLa-cells (Homo sapiens, UniProt P20618+P28074); assay: Intracellular inhibition of proteasomes in cultivated HeLa-cells; format: cell-based; details: for reduction of the proteolytic activity in cells at 10 nM: HeLa cells; for membrane-permeation / stability during the incubation periods / proteasomal activity reduced to: cultivated cells; for proteasomal activity reduced to: remaining activity
T2 construct: endogenous in cells; host or cells: HeLa
Experimental: A, HeLa-cells were cultivated were 24 hours in the presence of the inhibitor. The protein concentration was determined in accordance with the cellular lysis according to Bradford in order to normalise the proteasomal activities to the different amounts of cells. Subsequently Complete (Roche) was added to all lysates, and the proteasomal activity was determined through the hydrolysis of Suc-LLVY-AMC. B, HeLa-cells was incubated with 1 μM of compound 15 for 2, 4, 6 and 24 hours. Cells were lysed, and proteins were separated through SDS-PAGE on a 10% gel, blotted to a PVDF-membrane. The accumulation of the poly-ubiquitinylated proteins was detected in a Western blot by an anti-ubiquitine-antibody (DAKO). C, HeLa-Cells were treated with increasing concentrations of the inhibitor 15, 25, 26, 27, and 28 for 24 hours (lane 1: without inhibitor; lane 2: 10 nM; lane 3: 100 nM and lane 4: 1 μM of the given inhibitor). Cells were lysed, proteins were separated on 15% gels, and the accumulation of the poly-ubiquitinylated proteins was controlled through Western blot.
HeLa-Cells were cultivated in RPMI, supplemented with 10% FCS and penicillin/streptomycin, at 5% CO2. Inhibitors were administered from 100×-stock solutions (in DMSO) at the final concentrations as indicated, and incubated with the cells for at least 20 hours.
Cultivated cells (HeLa) were harvested lysed and with 0.1% NP40 in TEAD in the presence of the commercially available protease-inhibitor-mixture Complete (Roche). The proteasomal activity was measured in 10 μl of the lysate using Suc-LLVY-AMC as a substrate. The protein content was quantified by means of Bradford (Protein assay; BioRad).
An application on cell cultures or animals requires that the concentrations of the inhibitors are chose as low as required. The specific proteasomal activity was reduced to a value of below 50% in cells that were treated with 1 μM of the compounds 15, 22, 25, 26, or 28, respectively (FIG. 6A).

20S proteasome = system: T3, 20S proteasome; assay: Inhibition of the different proteasomal activities, summary statements; format: biochemical; details: for which proteasomal activities are inhibited (site selectivity): isolated proteasomes, specific substrates
T3 construct: Proteasomes were isolated from red blood cells; from tissue; host or cells: red blood cells
Experimental: The specific inhibition of a single catalytic site is of specific interest for the development of drugs. Thus, the inhibition of the different proteasomal activities of the proteasome was analysed (see also example 6). The different cleavage-preferences of the proteasome were determined by the specific substrate for the hydrophobic (chymotrypsin-like), the trypsine-like and the caspase-like activities of isolated proteasomes.
as §2
(§5) The effects thereof were compared with the one of the commonly used proteasomal inhibitor 3 (MG132). The chymotrypsin-like (Suc-LLVY-AMC), the trypsin-like (Bz-VGR-AMC), and the caspase-like (Z-LLE-AMC)-activities of 20S proteasomes were determined following incubation for one hour at 37° C.

[3] = molecular target: T4, 20S proteasome β1 caspase-like activity (LLE-MCA) (Homo sapiens, UniProt P28072+Q99436); assay: Protease assay, caspase-like activity of isolated 20S proteasomes; format: biochemical; details: isolated 20S proteasome; LLE-MCA 50 μM; 15 min pre-incubation; read-out: IC50 β1 Caspase-like (E)
T4 construct: Proteasomes were isolated from red blood cells; from tissue; host or cells: red blood cells
Experimental: as §1, §2, §5, §3, §4

HeLa-cells = assay: Viability of HeLa-cells, crystal violet-staining; format: cell-based; details: for rate of survival of HeLa-cells: 10 μM, 20 hours
Experimental: A, The viability of HeLa-Cells that were incubated with the compounds 7-28 and MG132 (1 μM), was determined using crystal-violet-staining after 20 h.
B, The viability of HeLa-Cells is dependent from the concentration of the inhibitor. HeLa-cells were cultivated for 20 hours in the presence of increasing concentrations (10 to 10000 nM) of the compounds (7, 13, 15, 18, 20-22, 24-28) and MG 132. The survival of the cells was determined using crystal-violet-staining.
The viability of Hela-Cells in the presence of different compounds was tested in […]. The viability of HeLa-cells was tested through crystal violet-staining following the incubation with the inhibitors. The cells were washed once with PBS, fixed with 1% glutardialdehyde for 30 min, and washed again. Finally, the fixed cells were stained with 0.1% crystal violet in PBS for 30 min, and subsequently carefully washed with water, in order to remove unbound dye. The residual dye was eluted with 0.1% Triton X-100 in PBS, and determined at 550 nm.

Row | IC50 [1] | reduction of the proteolytic activity in cells at 10 nM [2] | stability during the incubation periods [2] | proteasomal activity reduced to [2] | IC50 (20S proteasome; proteasomal activity not given, read-out: IC50-values of the most potent inhibitors) | IC50 [3] | SMILES | membrane-permeation [2] | which proteasomal activities are inhibited (site selectivity) (20S proteasome) | toxicity (HeLa-cells) | rate of survival of HeLa-cells (HeLa-cells)
1 | 0.058 µM | reduction of the proteolytic activity | sufficient stability | 10% | < 0.06 µM | 1.79 µM | CC(C)CC(C=O)NC(=O)C(CC(=O)OC(C)(C)C)NC(=O)C(CC(C)C)NC(=O)OCc1ccccc1 (stereo not drawn) [Compound 15, Z-Leu-Asp(O^tBu)Leu-CHO] (Cbz-Leu-Asp(OtBu)-Leu-aldehyde; configuration not given here) | able to penetrate cellular membranes; also recorded: membrane-permeation | inhibited all of the proteasomal hydrolytic activities | low toxicity | markedly reduced
2 | 0.072 µM | reduction of the proteolytic activity | sufficient stability | 10% |  | > 10 µM | CC(C)C[C@H](NC(=O)OCc1ccccc1)C(=O)N[C@@H](CC(C)C)C(=O)N[C@@H](CC(C)C)C(=O)C(=O)Nc1ccccc1 [Compound 28] | membrane-permeation | exclusive reduction of the chymotryptic activity |  | markedly reduced
